# Experimental data: ChEMBL document CHEMBL5260817, “Polyamine-based analogs and conjugates as antikinetoplastid agents” (Eur J Med Chem, 2017)
# Several values for one entry are separate records, joined by “and”; a condition that tells them apart may be missing. Equal entries are not always repeated.
# Tests used:
# [1] = target: T1, Trypanothione reductase (Trypanosoma cruzi, UniProt P28593); test: Inhibition of Trypanosoma cruzi TryR
# [2] = target: T1, Trypanothione reductase; test: Inhibition of Trypanosoma cruzi TryR assessed as inhibition constant
# [3] = tested on: Trypanosoma brucei brucei; test: Antiprotozoal activity against Trypanosoma brucei brucei; assay type: functional, organism-based
# [4] = target: Glutathione reductase, mitochondrial (Homo sapiens, UniProt P00390); test: Inhibition of human glutathione reductase
# Chain of Glutathione reductase, mitochondrial (P00390 whole entry): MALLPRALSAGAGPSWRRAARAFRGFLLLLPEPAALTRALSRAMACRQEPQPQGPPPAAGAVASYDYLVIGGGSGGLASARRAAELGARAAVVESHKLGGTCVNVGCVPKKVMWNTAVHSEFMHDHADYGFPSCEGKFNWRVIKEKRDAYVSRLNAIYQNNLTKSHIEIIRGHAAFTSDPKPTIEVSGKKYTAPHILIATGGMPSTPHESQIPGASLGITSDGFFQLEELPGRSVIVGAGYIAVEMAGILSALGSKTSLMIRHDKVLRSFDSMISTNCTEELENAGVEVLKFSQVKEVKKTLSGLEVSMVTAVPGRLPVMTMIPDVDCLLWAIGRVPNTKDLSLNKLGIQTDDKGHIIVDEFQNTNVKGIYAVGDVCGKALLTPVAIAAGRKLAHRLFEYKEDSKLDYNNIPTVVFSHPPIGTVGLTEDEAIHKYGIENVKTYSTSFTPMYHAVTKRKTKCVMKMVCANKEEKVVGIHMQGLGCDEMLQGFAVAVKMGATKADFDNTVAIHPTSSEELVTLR
# [5] = target: Trypanothione reductase (Trypanosoma brucei brucei, UniProt P39051); test: Inhibition of Trypanosoma brucei TryR assessed as inhibition constant
# Chain of Trypanothione reductase (Trypanosoma brucei brucei, UniProt P39051) (P39051 whole entry): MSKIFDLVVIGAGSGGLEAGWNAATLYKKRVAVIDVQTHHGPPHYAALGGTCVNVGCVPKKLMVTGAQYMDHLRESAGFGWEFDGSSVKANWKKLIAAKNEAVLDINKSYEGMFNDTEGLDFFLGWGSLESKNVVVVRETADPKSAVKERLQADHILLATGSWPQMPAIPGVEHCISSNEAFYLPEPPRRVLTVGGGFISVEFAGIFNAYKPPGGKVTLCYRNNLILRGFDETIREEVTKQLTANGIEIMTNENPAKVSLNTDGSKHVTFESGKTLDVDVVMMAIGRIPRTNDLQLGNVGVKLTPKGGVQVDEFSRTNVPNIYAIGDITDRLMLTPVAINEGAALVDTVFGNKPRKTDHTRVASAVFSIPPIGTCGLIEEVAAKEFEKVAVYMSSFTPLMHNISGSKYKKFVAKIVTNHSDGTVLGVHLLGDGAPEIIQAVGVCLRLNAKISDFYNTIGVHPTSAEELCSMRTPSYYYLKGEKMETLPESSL
# [6] = tested on: Trypanosoma brucei; test: Antiprotozoal activity against Trypanosoma brucei; assay type: functional, organism-based
# [7] = tested on: Leishmania amazonensis; test: Antiprotozoal activity against Leishmania amazonensis promastigotes measured after 48 hrs by MTT assay; assay type: functional, organism-based
# [8] = Inhibition of TryR (unknown origin) assessed as inhibition constant; parameters: species or system Bacteria
# [9] = Inhibition of Trypanosoma brucei MetRS
# [10] = tested on: Leishmania braziliensis; test: Antiprotozoal activity against Leishmania braziliensis MHOM/PE/84/LC26 amastigotes infected in mouse J774.2 cells measured after 72 hrs; assay type: functional, organism-based; details: J774.2, 72 h
# [11] = tested on: Trypanosoma brucei; test: Trypanocidal activity against Trypanosoma brucei K 269 strain; assay type: functional, organism-based
# [12] = tested on: Trypanosoma brucei; test: Trypanocidal activity against Trypanosoma brucei K 243-As-10-3 strain; assay type: functional, organism-based
# [13] = tested on: Trypanosoma brucei; test: Trypanocidal activity against Trypanosoma brucei Lab 110 strain; assay type: functional, organism-based
# [14] = tested on: Trypanosoma brucei; test: Trypanocidal activity against Trypanosoma brucei K 243 strain; assay type: functional, organism-based
# [15] = tested on: Leishmania donovani; test: Antiprotozoal activity against Leishmania donovani MHOM/SD/00/1S-2D strain promastigotes assessed as parasitic death at 10 uM relative to control; assay type: functional
# [16] = tested on: Leishmania donovani; test: Antiprotozoal activity against Leishmania donovani MHOM/SD/00/1S-2D strain promastigotes assessed as parasitic death; assay type: functional, organism-based
# [17] = target: T1, Trypanothione reductase; test: Inhibition of Trypanosoma cruzi TryR assessed as inhibition constant in presence of NADPH
# [18] = tested on: Trypanosoma cruzi; test: Antiprotozoal activity against Trypanosoma cruzi; assay type: functional, organism-based
# [19] = tested on: Trypanosoma brucei rhodesiense; test: Antiprotozoal activity against Trypanosoma brucei rhodesiense; assay type: functional, organism-based
# [20] = tested on: Leishmania donovani; test: Antiprotozoal activity against Leishmania donovani; assay type: functional, organism-based
# [21] = tested on: Leishmania chagasi; test: Antiprotozoal activity against Leishmania chagasi measured after 3 days by MTT assay; assay type: functional, organism-based; details: 72 h
# [22] = tested on: Leishmania amazonensis; test: Antiprotozoal activity against Leishmania amazonensis measured after 3 days by MTT assay; assay type: functional, organism-based; details: 72 h
# [23] = tested on: Leishmania donovani; test: Antiprotozoal activity against Leishmania donovani MHOM/IN/1978/UR6 strain promastigotes assessed as parasite growth inhibition; assay type: functional, organism-based
# [24] = tested on: Trypanosoma; test: Inhibition of Trypanosomal TryS at 10 uM relative to control
# [25] = tested on: Leishmania donovani; test: Antiprotozoal activity against Leishmania donovani promastigotes; assay type: functional, organism-based
# [26] = tested on: Bacteria; test: Inhibition of TryR (unknown origin) at 10 uM relative to control
# [27] = tested on: Leishmania donovani; test: Antiprotozoal activity against Leishmania donovani amastigotes assessed as growth inhibition measured after 7 days relative to control; assay type: functional; details: time 7 day
# [28] = tested on: Leishmania amazonensis; test: Antiprotozoal activity against Leishmania amazonensis PH8 strain […] assessed as […] at 10 ug/ml relative to control; assay type: functional; details: dose 10 µg/ml
# [29] = tested on: Leishmania braziliensis; test: Antiprotozoal activity against Leishmania braziliensis 2903 strain […] assessed as […] at 10 ug/ml relative to control; assay type: functional; details: dose 10 µg/ml
# [30] = tested on: Leishmania donovani; test: Antiprotozoal activity against Leishmania donovani PP75 strain […] assessed as […] at 10 ug/ml relative to control; assay type: functional; details: dose 10 µg/ml
# [31] = tested on: Trypanosoma cruzi; test: Antiprotozoal activity against Trypanosoma cruzi JEM strain epimastigotes; assay type: functional, organism-based
# [32] = tested on: Trypanosoma cruzi; test: Antiprotozoal activity against Trypanosoma cruzi MG strain epimastigotes; assay type: functional, organism-based
# [33] = tested on: Trypanosoma cruzi; test: Antiprotozoal activity against Trypanosoma cruzi epimastigotes; assay type: functional, organism-based
# T1 sequence (P28593 whole entry): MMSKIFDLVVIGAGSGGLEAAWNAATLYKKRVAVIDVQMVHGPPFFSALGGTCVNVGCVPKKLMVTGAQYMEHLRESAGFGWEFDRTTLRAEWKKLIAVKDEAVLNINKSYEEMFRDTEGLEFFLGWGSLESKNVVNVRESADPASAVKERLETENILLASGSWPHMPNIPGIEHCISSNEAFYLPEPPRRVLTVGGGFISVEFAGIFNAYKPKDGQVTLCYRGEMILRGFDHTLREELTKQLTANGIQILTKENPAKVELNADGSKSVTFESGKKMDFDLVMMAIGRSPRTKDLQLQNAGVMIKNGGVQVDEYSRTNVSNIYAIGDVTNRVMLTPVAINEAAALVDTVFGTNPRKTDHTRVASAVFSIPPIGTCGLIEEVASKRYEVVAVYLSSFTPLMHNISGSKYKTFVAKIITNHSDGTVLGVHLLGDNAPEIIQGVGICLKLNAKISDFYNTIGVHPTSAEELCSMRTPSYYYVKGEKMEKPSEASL
compound,measurement,setting,value
CCCCN(CCCC)CCCNC(=O)CCCC1=C(CCCC(=O)NCCCN(CCCC)CCCC)C(=O)c2c(O)cccc2C1=O,IC50,[1],600 nM
NCCCCN(CCCN)Cc1ccccc1,Ki,[2],> 100 µM
N=C(NCCCNCCCCCCCNCCCNC(=N)NC1CCCCCC1)NC1CCCCCC1,IC50,[3],> 15000 nM
CCCCN(CCCC)CCCNC(=O)CCCCC1=C(C)C(=O)c2cccc(O)c2C1=O,IC50,[4],> 40 µM
O=C(Cc1ccccc1)NCCCNCCCCNCCCNC(=O)Cc1ccccc1,Ki,[5],> 100 µM
COc1ccc2c(C(=O)C(=O)NCCCNCCCCCCCCCCCCNCCCNC(=O)C(=O)c3c[nH]c4cc(OC)ccc34)c[nH]c2c1,IC50,[3],180 nM
c1ccc(-c2cccc(CNCCCNCCCCCCCNCCCNCc3cccc(-c4ccccc4)c3)c2)cc1,IC50,[6],1000 nM
CC(C)=CCC/C(C)=C/CC/C(C)=C/CNCCCN,IC50,[7],4.9 µM
CN1CCN(CCCNC(=O)/C=C/c2ccc3occ(/C=C/C(=O)NCCCN4CCN(C)CC4)c3c2)CC1,Ki,[8],3500 nM
OCCn1c(CNCCCNc2nc3ccccc3[nH]2)cc2c(Cl)cc(Cl)cc21,IC50,[6],1 nM
same,IC50,[9],< 25 nM
NCCCNCCCCNCCCNCCCc1ccccc1,Ki,[2],37 µM
CN1CCN(CCC(=O)Nc2cc(Br)ccc2Sc2cccc(NC(=O)CCCC(=O)Nc3cccc(Sc4ccc(Br)cc4NC(=O)CCN4CCN(C)CC4)c3)c2)CC1,IC50,[10],550 nM
NCCCN1CCN(CCCNC2=C(c3c[nH]c4ccccc34)C(=O)N(CCCN3CCN(CCCN)CC3)C2=O)CC1,IC50,[1],5400 nM
c1ccc(CCCNCCCNCCCCNCCCNCCCc2ccccc2)cc1,IC50,[11],1000 nM
same,Ki,[5],12 µM
same,IC50,[12],1000 nM
same,IC50,[13],1000 nM
same,IC50,[14],1000 nM
CC(=O)c1ccc(Sc2ccccc2NCCCN(CCCN)CCCCN(CCCN)CCCNc2cc(Cl)ccc2Sc2ccc(C(C)=O)cc2)cc1,Ki,[8],400 nM
COc1ccc2nc3cc(Cl)ccc3c(NCCCCNCCCNc3c4ccc(Cl)cc4nc4ccc(OC)cc34)c2c1,inhibition at 10 µM,[15],90%
same,IC50,[16],1000 nM
NCCCN(CCCCN(CCCN)CCCc1ccccc1)CCCc1ccccc1,IC50,[11],500 nM
same,Ki,[5],3 µM
same,IC50,[12],500 nM
same,IC50,[13],500 nM
same,IC50,[14],500 nM
CC(C)=CCC/C(C)=C/CC/C(C)=C/CNCCCCN,IC50,[7],15 µM
O=C(NCCCCNCCCNC(=O)C(F)(F)F)C(F)(F)F,Ki,[17],> 2 mM
CC(=O)N(CCCN)CCCCN,Ki,[17],> 2 mM
NCCCCNCCCNC(=O)C(=O)c1c[nH]c2ccccc12,IC50,[18],> 40 µM
same,IC50,[19],> 40000 nM
same,IC50,[20],> 40 µM
CCCCCCCCCCCC(=O)NCCCCN,IC50,[21],10000 nM
same,IC50,[22],10 µM
O=C(NCCCCNCCCNC(=O)c1cnc2cc(C(F)(F)F)ccc2c1O)c1cnc2cc(C(F)(F)F)ccc2c1O,Ki,[8],850 nM
CCCCCCCCCCCCCC(=O)NCCCC(=O)N(CC(=O)Nc1cccc(Sc2ccc(Br)cc2NC(=O)CCN2CCN(C)CC2)c1)C(=O)Nc1ccccc1Sc1ccc(Br)cc1NC(=O)CCN1CCN(C)CC1,IC50,[1],200 nM
CN1CCN(CCC(=N)Nc2cc(Cl)ccc2Sc2ccccc2)CC1,IC50,[19],1560 nM
C(CCCNCCCNCC1CCCCCC1)CCCNCCCNCC1CCCCCC1,IC50,[19],160 nM
c1ccc(CNCCCCNCCCCCCCCCCCCNCCCNCc2ccccc2)cc1,IC50,[23],4 µM
NCCNC(=O)CN1C(=O)Cc2c([nH]c3ccc(Br)cc23)-c2ccccc21,inhibition,[24],80%
CC[C@H](C)CNCCCNCCCCCCCNCCCNC[C@@H](C)CC,IC50,[3],40 nM
NCCCCNCCCNC(=O)C(=O)c1c[nH]c2cc(Br)ccc12,IC50,[18],> 40 µM
same,IC50,[19],> 40000 nM
same,IC50,[20],> 40 µM
CC(=O)NCCCCNCCCNC(C)=O,Ki,[17],> 2 mM
COc1cc(CN(CCCN)Cc2ccc(OCc3ccccc3)c(OC)c2)ccc1OCc1ccccc1,IC50,[25],< 1000 nM
CCCNCCCNC(=O)CNC(=O)[C@H](CC(Br)C(Br)C[C@H](NC(=O)OCc1ccccc1)C(=O)NCC(=O)NCCCNCCC)NC(=O)OCc1ccccc1 (stereo partly drawn),Ki,[2],15.9 µM
CN1CCN(CCCNC(=O)CCCCCC2=C(CCCCCC(=O)NCCCN3CCN(C)CC3)C(=O)c3c(N)cccc3C2=O)CC1,IC50,[1],800 nM
Fc1ccc2[nH]c(NCCCNCc3cc(Cl)cc(Cl)c3)nc2n1,IC50,[6],4 nM
same,IC50,[9],1 nM
O=C(Cc1c[nH]c2ccccc12)NCCCCNCCCNC(=O)Cc1c[nH]c2ccccc12,inhibition,[26],95%
CN1CCN(CCCNCCC#N)CC1,inhibition (INH),[27],80%
COc1ccc2nc3cc(Cl)ccc3c(NCCCCN(CCCNc3c4ccc(Cl)cc4nc4ccc(OC)cc34)C(=O)[C@H](C)N)c2c1,inhibition at 10 µM,[15],90%
same,IC50,[16],1000 nM
COC(=O)/N=C(\NCCCN1CCN(C)CC1)NC(=O)OC,inhibition (INH),[27],85%
c1ccc(CNCCCNCCCCNCCCNCc2ccccc2)cc1,Ki,[5],19 µM
CC(C)=CCC/C(C)=C/CC/C(C)=C/CN1CCNCC1,IC50,[7],13 µM
CNCCNC(=O)CN1C(=O)Cc2c([nH]c3ccc(Br)cc23)-c2ccccc21,inhibition,[24],90%
Clc1cc(Cl)c2c(c1)[C@H](NCCCNc1nc3ncccc3[nH]1)CCN2,IC50,[6],0.4 nM
same,IC50,[9],2 nM
c1ccc(CCCNCCCN(CCCCN(CCCNCCCc2ccccc2)CCCc2ccccc2)CCCc2ccccc2)cc1,IC50,[11],100 nM
same,Ki,[5],0.6 µM
same,IC50,[12],100 nM
same,IC50,[13],100 nM
same,IC50,[14],100 nM
CCCCCCCCCCCCCCC(CN(CC)CC)NC(=O)OC(C)(C)C (stereo not drawn),Activity,[28],80%
same,Activity,[29],80%
same,Activity,[30],80%
CCCCCCCCCCCCCCC(N)CN (stereo not drawn),IC50,[31],> 19 µM
same,IC50,[32],> 19 µM
CC(C)=CCC/C(C)=C/CC/C(C)=C/CNCCN,IC50,[7],16.8 µM
NCCCCN(CCCN)C(=O)OCc1ccccc1,Ki,[2],> 100 µM
O=C(Cc1c[nH]c2cc(Br)ccc12)NCCCNCCCCNCCCNC(=O)Cc1c[nH]c2cc(Br)ccc12,inhibition,[26],98%
same,Ki,[8],76 nM and 80 nM
NCCCCN(Cc1ccccc1)Cc1ccc(OCc2ccccc2)cc1,IC50,[25],< 1000 nM
c1ccc2cc(CNCCCCNCCCNCc3ccc4ccccc4c3)ccc2c1,IC50,[6],190 nM
CCN(CCCCN1CN(C(CC(C)C)C(=O)O)CSC1=S)CCCN1CN(C(CC(C)C)C(=O)O)CSC1=S (stereo not drawn),IC50,[18],3.64 µM
CCCCN(CCCC)CCCNC(=O)CCCCC1=C(C)C(=O)c2ccccc2C1=O,IC50,[4],> 40 µM
CCCNCCCNC(=O)CNC(=O)[C@H](CCCC[C@H](NC(=O)OCC1c2ccccc2-c2ccccc21)C(=O)NCC(=O)NCCCNCCC)NC(=O)OCC1c2ccccc2-c2ccccc21,Ki,[2],2 µM
CC(C)(C)OC(=O)N(CCCN)CCCCN,Ki,[17],> 2 mM
NCCCN(Cc1ccc(OCc2ccc(Br)cc2)cc1)Cc1ccc(OCc2ccc(Br)cc2)cc1,IC50,[25],< 1000 nM
NCCCCN(CCCN)Cc1ccc2ccccc2c1,Ki,[2],> 100 µM
COc1cc(CN(CCCN)Cc2ccc(OCc3ccc(Br)cc3)c(OC)c2)ccc1OCc1ccc(Br)cc1,IC50,[25],< 1000 nM
CN1CCN(CCC(=O)Nc2cc(Cl)ccc2Sc2cccc(NC(=O)CCCC(=O)Nc3cccc(Sc4ccc(Cl)cc4NC(=O)CCN4CCN(C)CC4)c3)c2)CC1,IC50,[1],930 nM
same,IC50,[10],930 nM
CCCCCCCCCCNCCCCCCN,IC50,[33],14.3 µM
CCCCCCCCCCCCNCCCCN,IC50,[21],530 nM
same,IC50,[22],5.13 µM
CCCCCCCCCCCCNCCN,IC50,[21],200 nM
same,IC50,[22],0.94 µM
Clc1cc(Cl)cc(CNCCCNc2nc3ncccc3[nH]2)c1,IC50,[6],4 nM
same,IC50,[9],1 nM
c1ccc(CCCN(CCCCN(CCCc2ccccc2)CCCN(CCCc2ccccc2)CCCc2ccccc2)CCCN(CCCc2ccccc2)CCCc2ccccc2)cc1,IC50,[11],20000 nM
same,IC50,[12],20000 nM
same,IC50,[13],20000 nM
same,IC50,[14],20000 nM
CCCNCCCCCCCCCNC(=O)[C@H](O)[C@H](O)[C@H](O)CO,IC50,[21],2500 nM
